SMILES strings stand for the structures.

This is an account of results in ChEMBL document CHEMBL3507680, “University of Dundee, Gates Library screen for HepG2 cell viability”.

A short description of this data set: Human HepG2 cell viability assay in 384 well format. It counts as toxicity, cell-based. The arrangement: dose 125 nL, time 70.5 hour; concentration not given beside the values. Conditions: HepG2 cells, read-out: Inhibition.
On to `O=C(NCCCNc1ccc(C(F)(F)F)cn1)c1ccccc1`, for which the cytotoxicity at 70.5 h is -8.08%.
On to `Cc1cc(O)n2nc(C3CCN(C(=O)c4ccccn4)CC3)cc2n1`, for which the cytotoxicity at 70.5 h is 18.6%.
Under `Cc1ccc(S(=O)(=O)NC(=O)CCc2cscn2)cc1Cl` stands 25.6%.
Turning to `O=C(c1ccc(-n2cccn2)nc1)N1CCC(c2ccn[nH]2)C1` (stereo not given), the cytotoxicity at 70.5 h was -8.23%.
Then `Cn1c(SCc2noc(C(C)(C)C)n2)nnc1C1CCS(=O)(=O)C1` (stereo not given), with -7.06%; and `CC(=O)N1CCN(C(=O)NC(C)Cn2ccnc2)CC1` (stereo not given), with -0.59%.
Under `O=C(NCc1ccccn1)c1cnc(C2CCCN2)cn1` (stereo not given) stands -4.69%.
Under `Cn1ccnc1COc1ccc(NC(=O)CCC2CCCO2)cc1` (stereo not given) stands -5.92%; under `CCCn1cc(C(=O)NCCc2ccncc2)c(C)n1`, -6.81%.
For the compound `Cc1ncsc1C(=O)NC1CCN(CC(=O)N(C)C(C)(C)C#N)CC1`, the cytotoxicity at 70.5 h worked out at 28.1%.
Under `COC(=O)c1cccc(S(=O)(=O)NC(=O)COC2CCCC2)c1` stands -11.9%.
Then `c1ccc(CCN2CCN(c3ncnc4[nH]ccc34)CC2)cc1`, with -3.03%; and `O=C(Cc1ccc2c(c1)OCCO2)NC1CCCCC1`, with -1.15%; and `Cc1csc(NC(=O)C2CCN(Cc3cccc4c3OCCO4)CC2)n1`, with 8.1%.
Regarding `CN(C)C(=O)NCc1nnc2n1CCN(Cc1cccs1)C2`, the cytotoxicity at 70.5 h was -2.91%.
Then `CC(=O)c1ccc(C(=O)NCCCOC(C)c2ccccc2)s1` (stereo not given), with 1.1%.
Take `CN1CCN2CCN(Cc3cc(=O)n4c5c(cccc35)CCC4)CC2C1` (stereo not given): the cytotoxicity at 70.5 h is -13.5%.
As for `Cc1cnn(CC2CCCN2C(=O)Cc2cn3ccsc3n2)c1` (stereo not given), the cytotoxicity at 70.5 h was -6.38%.
As to `COc1ccc(CCC2CCCN(C(=O)CCc3cc(O)no3)C2)cc1` (stereo not given), the cytotoxicity at 70.5 h is -4.3%.
Then `Cc1ccc(CN2CCc3onc(C(=O)NCCN(C)C)c3C2)o1`, with -8.28%; and `Cc1noc(NC(=O)c2ccc(OC(F)(F)F)cc2)n1`, with 55.7%.
In the case of `CC(C)c1cc(COCCC(=O)O)no1`, the cytotoxicity at 70.5 h was -6.18%.
For the compound `Cn1ncc2c(NCCC34CCCN3CCC4)nc(C3CCCC3)nc21`, the cytotoxicity at 70.5 h was 5.19%.
Under `CCc1noc(C)c1C(=O)N1CCCN(Cc2csc(C)n2)CC1` stands -9.45%; under `CC(CN1CCOCC1)n1cncc1-c1cnn(Cc2ccccc2)c1` (stereo not given), -2.84%.
With `COc1ccc(N2CCC(N3C[C@H](NC(C)=O)[C@@H](C(C)C)C3)CC2)cc1`, the cytotoxicity at 70.5 h was -7.18%.
Regarding `CC(C)Cc1noc(CN2CCN(C(=O)c3cccc(F)c3)CC2)n1`, the cytotoxicity at 70.5 h is -3.6%.
Then `CCN1CCC(CNC(=O)C2(c3cccc(C)c3)CCCCC2)CC1`, with 1.1%.
Turning to `COc1ccccc1OCC(=O)N1CCN(Cc2noc(C)n2)CC1`, the cytotoxicity at 70.5 h was -10.6%.
Under `CCOCCn1nc(C)cc1C(=O)N1CC[C@@](O)(COC)C(C)(C)C1` stands 25.9%; under `CCCN1CCCn2nc(CNC(=O)CCOC)cc2C1`, -4.33%; under `Cc1noc(NCc2ccc(F)cc2F)n1`, 21.8%.
`CN1CC(c2ccccc2)C2(CCN(C(=O)c3ccc[nH]3)CC2)C1=O` (stereo not given): the cytotoxicity at 70.5 h was 2.63%.
Then `CCS(=O)(=O)N1CCC2(CCCN(Cc3cc(OC)ccc3F)C2)C1` (stereo not given), with -6.66%.
`CC(C)(N)c1cn(C2CCN(C3CCSCC3)CC2)nn1`: the cytotoxicity at 70.5 h was -6.81%.
Turning to `Cc1cccc(CN2C[C@@H]3OCCN(c4cnccn4)[C@@H]3C2)n1`, the cytotoxicity at 70.5 h was -4.63%.
`N#Cc1ccc(C(=O)N2CCn3c(Cn4cccn4)cnc3C2)cc1`: the cytotoxicity at 70.5 h is 7.14%.
Under `CN(C)CCN1CCc2c(nnn2C)C1COCc1ccccc1` (stereo not given) stands 10.5%; under `CN1CC(=O)N(c2cccc(F)c2)CC12CCN(S(=O)(=O)C1CC1)C2` (stereo not given), -2.84%; under `Cn1ccc(C(=O)NCc2ccc(N3CCCC3)nc2)cc1=O`, -5.51%.
Then `CC(C)(C(=O)NCC(N)=O)c1ccccc1F`, with -5.2%; and `Cc1cc(C)n(CC2CN(c3ccc(C#N)cn3)CCO2)n1` (stereo not given), with -3.22%.
Under `CCOc1cc(/C=C/c2ncc(C(=O)O)s2)cc(Br)c1O` stands -11.1%; under `COc1cccc(OCCc2nc3c(cc2C(N)=O)CCC3)c1`, 1.85%.
Turning to `Cc1c(Cl)cccc1OCC(=O)NC1(C#N)CCSC1` (stereo not given), the cytotoxicity at 70.5 h was -10.3%.
Under `CCc1nnsc1C(=O)N1CCCN(Cc2ccc(C)cc2)CC1` stands -8.18%.
Under `O=C(c1cc(Cn2ccc3ccccc32)[nH]n1)N1CCOCC1` stands -0.75%; under `CN(Cc1cccs1)c1cc(N2CCCC2CO)ncn1` (stereo not given), -1.74%; under `O=C(Cc1c(F)cccc1Cl)Nc1cccc(N2CCCC2)c1`, -4.34%.
As to `CCCNC(=O)C(C)NC(=O)Nc1ccccc1SC(F)F` (stereo not given), the cytotoxicity at 70.5 h is -13%.
Consider `CC(Oc1ccc2c(c1)OCO2)C(=O)N1CCC(N2CCOCC2)CC1` (stereo not given), for which the cytotoxicity at 70.5 h was -2.72%.
Under `N#Cc1cccc(S(=O)(=O)N2CCCCC2C(N)=O)c1` (stereo not given) stands -3.12%; under `Cn1ccnc1CN(Cc1ccccn1)Cc1ccccc1Cl`, 1.27%; under `COCCC(=O)NCc1ccc(-c2ccccc2C(=O)O)cn1`, -6.35%.
Then `COc1cc(OC)cc(C(=O)N(C)Cc2nnc3ccccn23)c1`, with -1.71%.
Then `CN1CCC(N(C)c2ccccc2CNCc2ccco2)CC1`, with 30.3%; and `CCCn1nc2c(cc1=O)CN(c1ncnc3ccsc13)CC2`, with -13%.
On to `O=C(NCCc1cccnc1)c1cn(CCN2CCNCC2)nn1`, for which the cytotoxicity at 70.5 h is -5.26%.
As to `CCc1cc(CNC(=O)N2Cc3ccccc3N(C)CC2C)on1` (stereo not given), the cytotoxicity at 70.5 h worked out at 3.84%.
Turning to `CN1CCN(Cc2cccnc2)C(=O)C12CCN(CC1CCOC1)CC2` (stereo not given), the cytotoxicity at 70.5 h was -6.06%.
`O=C(c1cccnc1)N1CCC2(CC1)CN(c1ccccn1)CCO2`: the cytotoxicity at 70.5 h was -13.7%.
Regarding `Cc1nc2c(c(=O)[nH]1)CN(Cc1ccc3c(c1)CCCN3C)CC2`, the cytotoxicity at 70.5 h was determined as 1.02%.
Under `CC(=O)N1CCC(c2nc3ccc(-c4ccnn4C)cn3n2)CC1` stands -12.4%; under `O=C(O)C1(n2ccnc2)CCN(Cc2ccc3occc3c2)CC1`, -5.96%; under `CC(C)N(C)Cc1nnn2c1CN(Cc1cccnc1)CCC2`, -101%.
`NC(=O)COc1ccc(CN2CCC(O)(CN3CCCCC3)C2)cc1Cl` (stereo not given): the cytotoxicity at 70.5 h was -12.1%.
With `CS(=O)(=O)NCCCN1CCCC1c1ccsc1` (stereo not given), the cytotoxicity at 70.5 h was -9.71%.
Then `COc1ccc(CN(C(=O)C2CCOCC2)c2ccncc2)cc1`, with -10.6%.
Then `O[C@@H]1C[C@H]2CN(Cc3ccccc3)[C@H](Cc3ccccc3)CN2C1`, with 27.4%; and `COC(=O)c1cc(C2CC2)nc2c(C#N)cnn12`, with 25%; and `CN(c1ccc(-c2nc(C3CC3)no2)cn1)C1CCOCC1`, with -3.42%.
Under `Cc1nc(C#N)c(N2CCC(c3nc(-c4ccccc4)no3)CC2)o1` stands -4.24%.
`O=C(CCN1CCCN(c2nccs2)CC1)Nc1ccccc1`: the cytotoxicity at 70.5 h amounted to 28.8%.
Then `O=C1CC(c2ccc3ccccc3n2)c2c(n[nH]c2C2CCC2)N1` (stereo not given), with 19.5%; and `Cc1ccc(CC(=O)NCC(Cc2ccc(F)cc2)C(N)=O)cn1` (stereo not given), with -0.982%; and `CC(=O)N(Cc1ncc(C)o1)C1CCN(Cc2nnc(C3CC3)o2)C1` (stereo not given), with 10%.
Under `Cc1c(NC(=O)c2cccc(Br)c2)c(C(=O)N(C)C)nn1C` stands 22.7%; under `c1cc(-c2noc([C@@H]3CCCN3CC3CC3)n2)cc(N2CCCC2)n1`, -11.8%.
With `CCS(=O)(=O)N1CCOCC2(CCN(c3ccccn3)C2)C1` (stereo not given), the cytotoxicity at 70.5 h was -11.4%.
Then `CC(C)c1nc(CN(C)C(=O)CNS(=O)(=O)c2cccs2)cs1`, with -6.67%; and `COc1ccc(-c2cc(N)on2)cc1`, with 13.8%.
Under `CCOC(=O)CCn1cnc2onc(-c3ccc(OC)cc3)c2c1=O` stands 35.2%.
Under `CN1CCN(c2ccc(CO)cc2F)CC1` stands -8.87%; under `Cc1ccc(CN2C[C@H]3C[C@H](C(=O)NCc4cccnc4)[C@@H](C2)O3)o1`, -8.69%; under `CC(=O)c1cccc(OCCCC(=O)N(C)Cc2cnn(C)c2)c1`, 9.09%.
On to `NC(=O)C1CCN(C(=O)c2ccc(Cn3cc(Br)cn3)cc2)CC1`, for which the cytotoxicity at 70.5 h is 16%.
As to `CN(CCc1ccccc1)c1cnn(CC(=O)N2CCOCC2)c(=O)c1`, the cytotoxicity at 70.5 h was -7.73%.
Under `CSc1nccn1-c1ccc(C(=O)NCC2CC2)cc1` stands -4.68%.
Then `Cn1cc(CN2CC[C@]3(C[C@H](Oc4ccccn4)CO3)C2)cn1`, with -6.32%; and `Cn1c(=O)cc(C(=O)NC(Cc2ccsc2)c2cccnc2)[nH]c1=O` (stereo not given), with -3.19%; and `Cn1cc(C2COC3(CCN(C(=O)Cn4cccn4)CC3)C2)cn1` (stereo not given), with -2.75%.
Turning to `OCC1CCCN1c1cc(NCCc2nccs2)ncn1` (stereo not given), the cytotoxicity at 70.5 h is 0.047%.
Then `O=C(NCCCN1CCN(c2ncccn2)CC1)NCC1CCOC1` (stereo not given), with 3.56%; and `CCC(CC)n1ncc(C(=O)NS(=O)(=O)c2ccsc2)c1C`, with 21.2%; and `Cn1cncc1CN1CCCC1c1cncc(Oc2ccc(Cl)cc2)n1` (stereo not given), with 8.74%.
Take `O=C(NCCN1CCOCC1)NCC(O)c1cccc(F)c1` (stereo not given): the cytotoxicity at 70.5 h is -3.47%.
For the compound `COc1cc(-c2cc(C3CCOC3)c(C#N)c(N)n2)ccc1O` (stereo not given), the cytotoxicity at 70.5 h is -6.12%.
Then `COc1cc(CNC2CCN(c3ccccc3)C2)cc(OC)c1OC` (stereo not given), with -6.84%; and `COc1ccc(CCNC(=O)NC2CCCC2)cc1OC`, with -12.5%.
Regarding `CCOCC(O)CN1CCN(C(=O)C2CCCC2)CC1` (stereo not given), the cytotoxicity at 70.5 h is -0.535%.
